Laboratory results reported in patent US20260167614A1, “IDENTIFICATION OF SMALL MOLECULES THAT RECRUIT AND ACTIVATE RNASE L” (UNIVERSITY OF FLORIDA RESEARCH FOUNDATION, INCORPORATED, priority 2022, published 2026).

Experiments:
pre-miR-21 [1] = assay: Binding affinity measurement by intrinsic fluorescence; conditions: WT pre-miR-21
Experimental: Binding Affinity Measurements. Binding assays were completed as previously described.8 Briefly, WT pre-miR-21 (5′-[…]-3′) or a mutant pre-miR-21 with the A-bulge and U-bulges replaced with base pairs (5′-[…]-3′) was folded in 1× Assay Buffer (8 mM Na2HPO4, pH 7.0, 185 mM NaCl, and 1 mM EDTA) by heating at 95° C. for 1 min followed by cooling on ice for 10 min. After cooling, BSA was added to a final concentration of 40 μg/mL. RiboTAC 7 was then added to the solution to a final concentration of 0.5 μM. The RNA solution was serial diluted with 1× Assay Buffer supplemented with 40 μg/mL BSA and 0.5 μM of 7. The solutions were incubated in the dark for 30 min at room temperature before being transferred to a black 384-well plate (Corning 4514, low-volume, non-binding) Fluorescence intensity was measured using a Tecan infinite M1000 Pro (Gain: 100) with excitation wavelength of 380 nm and emission wavelength of 425 nm. Binding affinity was calculated using Equation 1, as previously described:8
where I and I0 are the measured fluorescence intensity of compound with or without RNA, respectively, Δε is the difference between the fluorescence intensity with infinite concentration of RNA versus without RNA, [FL]0 and [RNA]0 are the concentrations of small molecule and RNA, respectively, and Kd is the dissociation constant.

pre-miR-21 [2] = assay: In vitro cleavage of dually labeled pre-miR-21 with RNase L; type: biochemical; conditions: incubated with RNase L
miR-21 = assay: Global miRNA profiling in MDA-MB-231 cells; type: cell-based; conditions: 377 miRNAs
Experimental: (§1) Two CRISPR-modified MDA-MB-231 cell lines with either a scrambled control guide RNA (“Control sgRNA”; RNase L is expressed) or with an RNase L-targeting guide RNA (“RNase L-Targeting sgRNA”; RNase L protein abundance is knocked down) were used to complete these studies.
For global miRNA profiling experiments, RT was completed using 2 μg total RNA and a Mir-X miRNA First Strand Synthesis Kit (Takara) in a total volume of 20 μL. The RT reaction was then plated into the wells of a 384-well qPCR plate containing pre-diluted forward and reverse primers for the miRNA of interest. RT-qPCR was performed on a QuantStudio5™ Real-Time PCR Instrument (Applied Biosystems) using Power SYBR Green Master Mix (Applied Biosystems). Data were analyzed using the ΔΔCt method,^11 followed by calculation of log 2 fold changes and −log 10 p-values. The software Perseus was used to calculate the false discovery rate (FDR) of 1% with a group variance of S0(0.1).

pre-miR-21 [3] = assay: RT-qPCR of pre-miR-21 in CRISPR-Control sgRNA MDA-MB-231 cells; type: cell-based; conditions: 5 μM
Experimental: as §1
MDA-MB-231 cells were treated with compound (0.1% DMSO final concentration) for 24 h, followed by removal of the compound-containing medium and redosing in growth medium for an additional 24 h (total treatment period of 48 h), with the exception of invasion assays in which the cells were treated overnight. For the time-course experiment, MDA-MB-231 cells were treated for the indicated lengths of time. MCF-10A cells, also used in invasion assays, were treated with compound overnight (0.1% DMSO final concentration).
RNA Isolation and Quantitative Real-Time Polymerase Chain Reaction (RT-qPCR). MDAMB-231 cells were cultured as described in “Cell Culture.” After compound treatment, total RNA was extracted using a Quick-RNA Miniprep Kit (Zymo) per the manufacturer's instructions. […] RT-qPCR was performed on a QuantStudio5™ Real-Time PCR Instrument (Applied Biosystems) using Power SYBR Green Master Mix (Applied Biosystems), and the resulting data were analyzed using the ΔΔCt method.

pre-miR-21 [4] = assay: In vitro C-Chem-CLIP; type: binding; conditions: 32P-labeled pre-miR-21; 8 at 5 μM; 7 at 1, 5, 20 or 100 μM
Experimental: Direct target occupancy was further verified using C-Chem-CLIP. In this assay, the RNA-binding module was conjugated to a diazirine cross-linking module and an alkyne handle for purification, affording Chem-CLIP probe 8 (FIG. 8A).^18 Radioactively labeled pre-miR-21 was incubated with a constant concentration of 8 and increasing amounts of 7. After cross-linking by irradiation with UV light, the amount of pre-miR-21 pulled down by 8 was measured by its radioactive signal. If the two compounds (7 and 8) share the same binding site, the amount of pre-miR-21 in the pulled down fraction is depleted.
In Vitro C-Chem-CLIP. Growth medium (RPMI 1640 medium supplemented with 300 mg/L Lglutamine & 25 mM HEPES; Corning, catalog #10-041-CV)] was inactivated by heating to 95° C. for 10 min followed by slowly cooling to room temperature. […]
Copper-catalyzed click chemistry^10 was used to click the probes in each sample to biotinazide (1265-5, Click Chemistry Tools). […] Radioactive signal from both the bound RNA on the magnetic beads and the unbound RNA in the wash solutions were measured using a Beckman […] Coulter LS6500 Liquid Scintillation Counter. The percentage pulldown by Chem-CLIP probe was calculated according to equation 2: […]

- Kd (pre-miR-21 [1]): 4.6 ± 2.1 µM
SMILES: CNC(=O)[C@H](c1ccccc1)N(C)Cc1ccc(-c2cccc(-c3sccc3NC(=O)CCOCCOCCOCCC(=O)NCCN3CCN(c4ccc5nc(-c6c(N)c7c(F)cccc7[nH]c6=O)[nH]c5c4)CC3)c2)cc1 [RiboTAC 7, (S)—N-(2-(4-(2-(4-amino-5-fluoro-2-oxo-1,2-dihydroquinolin-3-yl)-1H-benzo[d]imidazol-6-yl)piperazin-1-yl)ethyl)-3-(2-(2-(3-((2-(4′-((methyl(2-(methylamino)-2-oxo-1-phenylethyl)amino)methyl)-[1,1′-biphenyl]-3-yl)thiophen-3-yl)amino)-3-oxopropoxy)ethoxy)ethoxy)propanamide]
- cleavage of pre-miR-21 construct labeled with 6-FAM and BHQ (pre-miR-21 [2]): induced dose-dependent cleavage of pre-miR-21
- miRNA profiling selectivity (miR-21): selectively down-regulated miR-21 across the transcriptome
- reduction of pre-miR-21 abundance (pre-miR-21 [3]; 48 h treatment, RNase L expressed): ~30%
- treatment time at which pre-miR-21 degradation is first detectable (pre-miR-21 [3]; time-course): 48 h
- amount of pre-miR-21 cross-linked to Chem-CLIP probe 8 in competition (pre-miR-21 [4]): dose-dependently reduced the amount of pre-miR-21 cross-linked to 8
